The text below walks through data of paper PMC4795166, “Design of a MCoTI-Based Cyclotide with Angiotensin (1-7)-Like Activity” (Molecules, 2016).

The experiment addresses T1, recombinant human MAS1 (Homo sapiens, UniProt P04201).
T1 construct: expressed in transfected cells; host or cells: CHO cells stably transfected with pTEJ-8 vector
T1 sequence (P04201 1-325): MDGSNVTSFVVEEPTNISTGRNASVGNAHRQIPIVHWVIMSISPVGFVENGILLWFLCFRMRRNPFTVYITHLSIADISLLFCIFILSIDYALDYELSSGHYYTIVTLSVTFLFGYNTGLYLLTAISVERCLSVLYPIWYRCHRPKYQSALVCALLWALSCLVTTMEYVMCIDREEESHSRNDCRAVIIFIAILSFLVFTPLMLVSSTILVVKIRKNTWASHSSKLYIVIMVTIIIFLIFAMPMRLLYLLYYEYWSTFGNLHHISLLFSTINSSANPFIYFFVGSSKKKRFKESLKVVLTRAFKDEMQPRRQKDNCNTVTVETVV
As to the kind of experiment: MAS1 receptor activation, cell-based fluorescence assay of NO release in CHO cells. To be noted: absence of antagonist, MAS1 stably transfected CHO cells, 2 h incubation, two experiments. The protocol: Next, we tested the ability of cyclotide MCo-AT1-7 to activate the MAS1 receptor using CHO cells stably transfected with pTEJ-8 vector expressing recombinant human MAS1 in a cell-based fluorescence assay to detect the amount of NO release (Figure 5). […] The activity of the cyclotide MCo-AT1-7 was estimated to be ≈90% of that of peptide AT1-7 at 10 nM in this assay.
CHO cells stably transfected with pTEJ-8 vector expressing recombinant human MAS1 clone are grown to confluency. After washing, cells were incubated for a short time in 700 µL of supplemented Tyrode’s salts containing 10 µM 2-phenyl-4,4,5,5-tetramethylimidazoline-1-oxyl-3-oxide (PTIO), 100 µM 2,6-diaminonaftalene (DAN), and 1 mM L-arginine. When using antagonist for competition assays, cells are exposed to MAS1 antagonist A779 (D-Ala^7-AT 1-7) at 0.1 µM for 15 min before addition of the cyclotides to be tested. Different concentrations of the cyclotides to be analyzed are added to the cell medium and the plates are agitated for 1 min before being placed into the incubator for 2 h. After 2 h, the cellular supernatants are transferred to opaque 96 well plates, and the amount of released NO is measured by fluorescence (λex = 380 nm, λem = 425 nm).

With `CC[C@H](C)[C@H](NC(=O)[C@H](Cc1ccc(O)cc1)NC(=O)[C@@H](NC(=O)[C@H](CCCNC(=N)N)NC(=O)[C@@H](N)CC(=O)O)C(C)C)C(=O)N[C@@H](Cc1c[nH]cn1)C(=O)N1CCC[C@H]1C(=O)O` [AT1-7, angiotensin (1-7)], the “MAS1 activation: increase of intracellular NO concentration” value is listed as “increase the intracellular concentration of NO in a dose dependent manner”.
